Measurements reported in patent US12156871B2, “Substituted azacycles as muscarinic M1 receptor positive allosteric modulators” (SUVEN LIFE SCIENCES LIMITED, priority 2017, dated 2024).

Experiments:
[1] = Rodent pharmacokinetic study; format: in vivo, Male Wistar rats; details: rat; for AUC(0-t) / clearance / half-life / Cmax: male, Wistar, plasma; for F: oral 3 mg/kg vs i.v. 1 mg/kg
Method: Male Wistar rats (260±50 grams) were used as experimental animals. Animals were housed individually in polypropylene cage. Two days prior to study, male Wistar rats were anesthetized with isoflurane for surgical placement of jugular vein catheter. Rats were randomly divided for oral (3 mg/kg) and intravenous (i.v) (1 mg/kg) dosing (n=3/group) and fasted overnight before oral dosing (p.o.). However, rats allocated to intravenous (i.v.) dosing food and water was provided ad libitum.
At pre-determined point, blood was collected through jugular vein and replenished with an equivalent volume of normal saline. Collected blood was transferred into a labeled eppendorf tube containing 10 μL of heparin as an anticoagulant. Typically blood samples were collected at following time points: 0.08, 0.25, 0.5, 1, 2, 4, 6, 8, and 24 h post dose. Blood was centrifuged at 4000 rpm for 10 minutes. Plasma was separated and stored frozen at −80° C. until analysis. The concentrations of the test compounds were quantified in plasma by qualified LC-MS/MS method using suitable extraction technique. The test compounds were quantified in the calibration range around 1-1000 ng/mL in plasma. Study samples were analyzed using calibration samples in the batch and quality control samples spread across the batch.
Pharmacokinetic parameters Cmax, AUCt, T1/2, clearance and bioavailability (F) were calculated by non-compartmental model using standard non-compartmental model by using Phoenix WinNonlin 6.0.2 or 6.0.3 version Software package and the results are tabulated below.

[2] = Rodent brain penetration study; format: in vivo, Male Wistar rats; details: male, Wistar, brain/plasma, po; rat, 3 mg/kg, p.o. @ 1.0 hr; read-out: Single dose Rat Brain Penetration (Cb/Cp)
Method: Male Wistar rats (260±40 grams) were used as experimental animals. Three animals were housed in each cage. Animals were given water and food ad libitum throughout the experiment and maintained on a 12 h light/dark cycle.
Brain penetration was determined in discrete manner in rats. One day prior to dosing day, male Wistar rats were acclimatized and randomly grouped according to their weight. At each time point (0.5, 1 and 2 h) n=3 animals were used.
The test compounds were suitably preformulated and administered orally at (free base equivalent) 3 mg/kg. Blood samples were removed via cardiac puncture by using isoflurane anesthesia. The animals were sacrificed to collect brain tissue. Plasma was separated and brain samples were homogenized and stored frozen at −20° C. until analysis. The concentrations of the test compounds in plasma and brain were determined using LC-MS/MS method.
The test compounds were quantified in plasma and brain homogenate by qualified LC-MS/MS method using suitable extraction technique. The test compounds were quantified in the calibration range of 1-500 ng/mL in plasma and brain homogenate. Study samples were analyzed using calibration samples in the batch and quality control samples spread across the batch.

[3] = Protein binding assay (HT dialysis), human liver microsomes; format: in vitro ADME; details: pH 7.4, Human liver microsomes 0.5 mg/mL, Mean ± SEM, n = 3, read-out: Fu Microsomes (converted)
Method: Unbound fractions of test compounds in plasma, brain homogenate and liver microsomes were determined using high-throughput dialysis (HT dialysis). Briefly, dialysis membranes were soaked in deionized water for 20 minutes and then in deionized water with 30% ethanol for 15 minutes and finally in phosphate buffer until use. Membranes were rinsed in phosphate buffer before assembling. The membranes were layered between teflon bars of dialysis assembly. Stock solutions of test compound/comparative compound were prepared at 10 mM in DMSO, diluted to 1 mM in acetonitrile and further diluted to 100 μM in mixture of water and acetonitrile (1:1 v/v). Human plasma (pool of 3) was prepared from human blood (3 donors) by centrifuging at 4000 rpm for 10 min at 4° C. Rat and dog blood were obtained on the day of the study and centrifuged to obtain plasma. Rat brains were isolated, cleaned and homogenized with 2 volumes of buffer (3 fold dilution). Liver microsomes were prepared at 0.5 mg/mL in phosphate buffer (100 mM, pH 7.4). The dialysate chambers were loaded with 150 μL of 100 mM phosphate buffer (pH 7.4) in triplicates. The matrix chambers were loaded with 150 μL of the plasma or brain homogenate or microsomal suspension spiked with test compound/comparative compound at a final concentration of 1 μM. 50 μL of the sample was removed from both the chambers at 0 h. The plate was sealed and incubated at 37° C. for 6 h at 100 rpm. After 6 h, 50 μL of the sample was removed from both the chambers. Equal volumes of buffer or human plasma/microsomal suspension were added to the plasma/microsomal and buffer samples respectively to create identical sample matrices for analysis. The samples were precipitated with 150 μL of acetonitrile containing fluoxetine as an internal standard. All the samples were centrifuged at 10000 rpm for 10 minutes at 4° C.

[4] = test system: hippocampal theta oscillations; test: Theta modulation in dorsal hippocampus of anesthetized rats in combination with donepezil; format: in vivo, Male Wistar rats; details: in combination with donepezil (0.3 mg/kg, i.v.), test compound 1 mg/kg

AUC(0-t) ([1]; iv, i.v. 1 mg/kg) [ng·h/mL] | clearance ([1]; iv, i.v. 1 mg/kg) [mL/min/kg] | half-life ([1]; iv, i.v. 1 mg/kg) [min] | AUC(0-t) ([1]; oral 3 mg/kg) [ng·h/mL] | Cmax ([1]; oral 3 mg/kg) [ng/mL] | half-life ([1]; oral 3 mg/kg) [min] | F [1] [%] | Kp at 1 h [2] | fraction unbound at 6 h, 1 μM [3] | SMILES | effect of combination treatment on θ power compared with donepezil alone ([4]; FIG. 1) | θ power levels ([4]; anesthetized rat)
1750 ± 312 | 9.3 ± 2 | 114 ± 30 | 3520 | 1470 ± 26.5 | 78 ± 6 | 67 ± 5 | 0.35 ± 0.08 | 0.938 | COc1ccc(Cc2cc3c(nc2C)CN([C@H]2CCCC[C@@H]2O)C3=O)cc1 [Example 6, 6-(1S,2S-2-Hydroxycyclohexyl)-2-methyl-3-(4-methoxybenzyl)-6,7-dihydropyrrolo[3,4-b]pyridin-5-one] | – | –
662 ± 33 | 25.1 ± 1.2 | 30 | 1010 | 861 ± 168 | 36 ± 6 | 51 ± 17 | 0.45 ± 0.13 | 0.87 | COc1cccc(Cc2cc3c(nc2C)CN([C@H]2CCCC[C@@H]2O)C3=O)c1 [Example 38, 6-(1S,2S-2-Hydroxycyclohexyl)-2-methyl-3-(3-methoxybenzyl)-6,7-dihydropyrrolo[3,4-b]pyridin-5-one] | significantly higher than the donepezil alone | significant increase
